Consider 15 molecules from patent publication US20070179143A1 (priority 2003, published 2007).

One test deals with A549. Nature of the test: Cytotoxicity test to cancer cell lines (SRB method), A549. The note with it: Homo sapiens, A549, 48 h, read-out: Cytotoxicity ED50 A549. For orientation: Sulforhodamine B stains cellular protein and so reports cell mass.
The test system of another test is SK-OV-3. Nature of the test: Cytotoxicity test to cancer cell lines (SRB method), SK-OV-3. It counts as cell-based. The note with it: Homo sapiens, SK-OV-3, 48 h, read-out: Cytotoxicity ED50 SK-OV-3.
For a further test, the system named is SK-MEL-2. Nature of the test: Cytotoxicity test to cancer cell lines (SRB method), SK-MEL-2. It counts as cell-based. The conditions noted are these: Homo sapiens, SK-MEL-2, 48 h, read-out: Cytotoxicity ED50 SK-MEL-2.
The next test has as its system HCT-15. The test can be described thus: Cytotoxicity test to cancer cell lines (SRB method), HCT-15. The note with it: Homo sapiens, HCT-15, 48 h, read-out: Cytotoxicity ED50 HCT15.

Procedure for HCT-15: Cytotoxicity to A549 (Korea Research Institute of Chemical Technology), SK-OV-3 (Korea Research Institute of Chemical Technology), SK-MEL-2 (Korea Research Institute of Chemical Technology), HCT-15 (Korea Research Institute of Chemical Technology) and MCF7 (Korean Cell Line Bank, Seoul National University School of medicine) cells was measured by Sulforhodamin-B (SRB) method (1989, National Cancer Institute (NCI)) which was developed for the measurement of in vitro anticancer activity of a drug. Cells were separated using 0.25% trypsin-EDTA solution, leading to the preparation of a cell suspension by 5×10^318 2×10^4 cells/well. Then, the suspension was distributed into a 96 well plate by 100 μl/well, which was cultured in a 37° C., 5% CO2 incubator for 24 hours. Compounds prepared in examples of the present invention were used as a sample. Precisely, the compound was dissolved in dimethylsulfoxide and diluted with RPMI 1640 medium before being used as a sample. The final concentration of the sample used varied ranging 1 μM˜0.00001 μM. The medium was removed from the 96 well plate and then diluted sample solution was added by 100 μl/well, followed by further culture in a 37° C., 5% CO2 incubator for 48 hours. Tz (time zero) plate was collected from the point of adding the sample. Upon completing the culture, the medium was removed from each well along with Tz plate, then 10% trichloroacetic acid (TCA) was added by 100 μl/well. The plate was left at 4° C. for 1 hour to let cells be fixed on the floor of the plate. After cells were fixed completely, the plate was washed with water 5-6 times to remove the remaining trichloroacetic acid solution completely and moisture was completely dried at room temperature. 0.4% Sulforhodamine-B was dissolved in 1% acetic acid solution to prepare a staining solution. Cells were stained for 30 minutes with a dye added by 100 μl to each well of the completely dried plate. Then, the plate was washed with 1% acetic acid solution 5-6 times to remove sulforhodamine-B remained uncombined with cells. Then, the plate was dried at room temperature. 10 mM Tris solution was added by 100 μ/well thereto to dissolve the dye, and optical density (OD) was measured at 520 nm with a micro plate reader.
ED50 (concentration that inhibits cancer cell growth 50%, 5.0% effective dose, nM/ml) of the sample to cancer cell was calculated as follows. OD value at the point of beginning the culture with the sample was determined as Tz (time zero) value. OD value of a well to be cultured without the sample was determined as a control value (C). OD value of a well pretreated with the sample was determined as experimental value (T). After calculating Tz, C and T, cytotoxicity of the sample was measured by the below <Mathematical Formula 1>. T≦Tz, (T−Tz)/(C−Tz)×100 T>Tz, (T−Tz)/Tz×10,0 <Mathematical Formula 1>
ED50, the concentration that can inhibit cancer cell growth by 50%, was calculated by using a regression analysis of lotus program based on the degree of cytotoxicity obtained by the <Mathematical Formula 1>.

Take `COc1cc2c(c(OC)c1OC)-c1ccc(SC)c(=O)cc1[C@@H](NC(=O)c1ccc(CO[N+](=O)[O-])nc1)CC2` [Example 1, 6-nitrooxymethyl-N-[(7S)-1,2,3-trimethoxy-10-methylsulfanyl-9-oxo-5,6,7,9-tetrahydro-benzo[a]heptalen-7-yl]-nicotineamide]: the EC50 in the test on A549 was found to be 1.8 nM; with SK-OV-3, 1 nM; in the test with SK-MEL-2 it was 0.4 nM; with HCT-15, 0.6 nM.
In the case of `COc1cc2c(c(OC)c1OC)-c1ccc(SC)c(=O)cc1[C@@H](NC(=O)c1cccc(CO[N+](=O)[O-])n1)CC2` [Example 5, 6-nitrooxymethyl-pyridine-2-carboxylic acid-[(7S)-1,2,3-trimethoxy-10-methylsulfanyl-9-oxo-5,6,7,9-tetrahydro-benzo[a]heptalen-7-yl]-amide], the EC50 in the test with A549 was 1 nM; in the test with SK-OV-3, 1 nM; with SK-MEL-2 it was 3.1 nM; in the test with HCT-15 it was 4.4 nM.
For the molecule `COc1cc2c(c(OC)c1OC)-c1ccc(SC)c(=O)cc1[C@@H](NC(=O)c1ccc(F)c(CO[N+](=O)[O-])c1)CC2` [Example 16, 4-fluoro-3-nitrooxymethyl-N-[(7S)-1,2,3-trimethoxy-10-methylsulfanyl-9-oxo-5,6,7,9-tetrahydro-benzo[a]heptalen-7-yl]-benzamide], the EC50 stood at 1.6 nM with A549, 1 nM with SK-OV-3, 1 nM with SK-MEL-2 and 1 nM in the test on HCT-15.
With `COc1cc2c(c(OC)c1OC)-c1ccc(SC)c(=O)cc1[C@@H](NC(=O)c1cc(O)cc(CO[N+](=O)[O-])c1)CC2` [Example 18, 3-hydroxy-5-nitrooxymethyl-N-[(7S)-1,2,3-trimethoxy-10-methylsulfanyl-9-oxo-5,6,7,9-tetrahydro-benzo[a]heptalen-7-yl]-benzamide], the EC50 in the test on A549 is 8.1 nM; with SK-OV-3 it was 3.8 nM; in the test with SK-MEL-2 it was 1 nM; with HCT-15 it was 5.3 nM.
The corresponding values for `COc1cc2c(c(OC)c1OC)-c1ccc(SC)c(=O)cc1[C@@H](NC(=O)c1ccc(COC(=O)c3cccc(O[N+](=O)[O-])c3)nc1)CC2` [Example 25, 3-nitrooxy-benzoic acid-5-[(7S)-1,2,3-trimethoxy-10-methylsulfanyl-9-oxo-5,6,7,9-tetrahydro-benzo[a]heptalen-7-yl-carbamoyl]-pyridine-2-yl-methylester] are 8.8 nM, 5.4 nM, 14 nM and 15 nM.
For `COc1cc2c(c(OC)c1OC)-c1ccc(SC)c(=O)cc1[C@@H](NC(=O)c1ccc(COC(=O)CCCO[N+](=O)[O-])nc1)CC2` [Example 26, 4-nitrooxybutyric acid-5-[(7S)-1,2,3-trimethoxy-10-methylsulfanyl-9-oxo-5,6,7,9-tetrahydro-benzo[a]heptalen-7-yl-carbamoyl]-pyridine-2-yl-methylester] the same measures were 21 nM, above 50 nM, 47 nM and above 50 nM.
For the molecule `COc1cc2c(c(OC)c1OC)-c1ccc(SC)c(=O)cc1[C@@H](NC(=O)c1cccc(COC(=O)c3cccc(CO[N+](=O)[O-])c3)n1)CC2` [Example 27, 3-nitrooxymethyl-benzoicacid-6-[(7S) -1,2,3-trimethoxy-10-methylsulfanyl-9-oxo-5,6,7,9-tetrahydro-benzo[a]heptalen-7-yl-carbamoyl]-pyridine-2-yl-methylester], the EC50 in the test with A549 stood at 5 nM; in the test with SK-OV-3, 16 nM; with SK-MEL-2, 7 nM; in the test with HCT-15, 2 nM.
For `COc1cc2c(c(OC)c1OC)-c1ccc(SC)c(=O)cc1[C@@H](NC(=O)c1cccc(COC(=O)CCCO[N+](=O)[O-])n1)CC2` [Example 28, 4-nitrooxybutyric acid-6-[(7S)-1,2,3-trimethoxy-10-methylsulfanyl-9-oxo-5,6,7,9-tetrahydro-benzo[a]heptalen-7-yl-carbamoyl]-pyridine-2-yl-methylester] the same measures were 6 nM, 15 nM, 4 nM and 3 nM.
The corresponding values for `COc1cc2c(c(OC)c1OC)-c1ccc(SC)c(=O)cc1[C@@H](NC(=O)c1ccccc1OC(=O)c1cccc(CO[N+](=O)[O-])c1)CC2` [Example 29, 3-nitrooxymethyl-benzoic acid-2-[(7S)-1,2,3-trimethoxy-10-methylsulfanyl-9-oxo-5,6,7,9-tetrahydro-benzo[a]heptalen-7-yl-carbamoyl]-phenylester] are 1.1 nM, 3 nM, 0.9 nM and 0.8 nM.
For the molecule `COc1cc2c(c(OC)c1OC)-c1ccc(SC)c(=O)cc1[C@@H](NC(=O)c1ccccc1OC(=O)CCCO[N+](=O)[O-])CC2` [Example 30, 4-nitrooxybutyric acid-2-[(7S)-1,2,3-trimethoxy-10-methylsulfanyl-9-oxo-5,6,7,9-tetrahydro-benzo[a]heptalen-7-yl-carbamoyl]-phenylester], the EC50 was found to be 3.6 nM in the test on A549, 8.2 nM with SK-OV-3, 3.6 nM in the test with SK-MEL-2 and 5.2 nM in the test with HCT-15.
On to `COc1cc2c(c(OC)c1OC)-c1ccc(SC)c(=O)cc1[C@@H](NC(=O)c1cccc(OC(=O)c3cccc(CO[N+](=O)[O-])c3)c1)CC2` [Example 31, 3-nitrooxymethyl-benzoic acid-3-[(7S)-1,2,3-trimethoxy-10-methylsulfanyl-9-oxo-5,6,7,9-tetrahydro-benzo[a]heptalen-7-yl-carbamoyl]-phenylester], for which the EC50 was 1.1 nM in the test on A549, 3 nM in the test on SK-OV-3, 0.9 nM with SK-MEL-2 and 0.8 nM in the test on HCT-15.
Turning to `COc1cc2c(c(OC)c1OC)-c1ccc(SC)c(=O)cc1[C@@H](NC(=O)c1cccc(OC(=O)CCCO[N+](=O)[O-])c1)CC2` [Example 32, 4-nitrooxybutyric acid-3-[(7S)-1,2,3-trimethoxy-10-methylsulfanyl-9-oxo-5,6,7,9-tetrahydro-benzo[a]heptalen-7-yl-carbamoyl]-phenylester], the EC50 with A549 was determined as 6.2 nM; with SK-OV-3 it was 1 nM; in the test with SK-MEL-2, 0.05 nM; in the test on HCT-15, 0.08 nM.
For `COc1cc2c(c(OC)c1OC)-c1ccc(SC)c(=O)cc1[C@@H](NC(=O)c1cccc(COC(=O)c3cccc(CO[N+](=O)[O-])c3)c1)CC2` [Example 33] the same measures were 3.8 nM, 6.6 nM, 2.9 nM and 1 nM.
The corresponding values for `COc1cc2c(c(OC)c1OC)-c1ccc(SC)c(=O)cc1[C@@H](NC(=O)c1cccc(CON=O)c1)CC2` [Example 36, 3-nitrosooxymethyl-N-[(7S)-1,2,3-trimethoxy-10-methylsulfanyl-9-oxo-5,6,7,9-tetrahydro-benzo[a]heptalen-7-yl]-benzamide] are 2.9 nM, 1.1 nM, 0.1 nM and 0.7 nM.
As for `COc1cc2c(c(OC)c1OC)-c1ccc(SC)c(=O)cc1[C@@H](NC(=O)c1cccc(CSN=O)c1)CC2` [Example 38, 3-nitrosothiomethyl-N-[(7S)-1,2,3-trimethoxy-10-methylsulfanyl-9-oxo-5,6,7,9-tetrahydro-benzo[a]heptalen-7-yl]-benzamide], the EC50 with A549 was found to be 2.4 nM; in the test with SK-OV-3 it was 4.1 nM; with SK-MEL-2, 3.3 nM; in the test with HCT-15 it was 3 nM.
